Drawing on ChEMBL document CHEMBL1139208, “An efficient and stereoselective dearylation of asarinin and sesamin tetrahydrofurofuran lignans to acuminatolide by methyltrioxorhenium/H(2)O(2) and UHP systems” (J Nat Prod, 2007), this text covers IC50 for four compounds.

The test has as its system NIH3T3. As to the kind of experiment: Cytotoxicity against murine 3T3 cells by MTT assay. The class given is cell-based. Particulars: Mus musculus. For orientation: Formazan colour is commonly taken as a measure of viable cells.
Regarding `O=C(O)[C@H]1CO[C@@H](c2ccc3c(c2)OCO3)[C@H]1CO`, the IC50 (commonly the concentration that inhibits the measured activity by half) was determined as 3000 nM. To `O=C1OC[C@H]2[C@@H]1CO[C@H]2c1ccc2c(c1)OCO2` belongs greater than 20000 nM; to `O=C1OC[C@H]2[C@@H]1CO[C@@H]2c1ccc2c(c1)OCO2`, greater than 20000 nM; to `c1cc2c(cc1[C@H]1OC[C@H]3[C@@H]1CO[C@H]3c1ccc3c(c1)OCO3)OCO2` [ASARININ], 200 nM.
